Experimental data published in PubChem BioAssay (NCI).
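Following 48 hours of exposure in 96-well plates, responses at five concentrations were used to interpolate endpoints linearly. TGI: total growth inhibition.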

Experiments:
Assay in all cases: NCI tumour cell line growth inhibition, 48 h
786-0 renal = test system: 786-0 renal
A498 renal = test system: A498 renal
A549 NSCLC = test system: A549 NSCLC
ACHN renal = test system: ACHN renal
BT-549 breast = test system: BT-549 breast
CAKI-1 renal = test system: CAKI-1 renal
COLO 205 colon = test system: COLO 205 colon
DU-145 prostate = test system: DU-145 prostate
EKVX NSCLC = test system: EKVX NSCLC
HCT-116 colon = test system: HCT-116 colon
HCT-15 colon = test system: HCT-15 colon
HL-60(TB) leukemia = test system: HL-60(TB) leukemia
HOP-62 NSCLC = test system: HOP-62 NSCLC
HOP-92 NSCLC = test system: HOP-92 NSCLC
HS 578T breast = test system: HS 578T breast
HT29 colon = test system: HT29 colon
IGROV1 ovarian = test system: IGROV1 ovarian
K-562 leukemia = test system: K-562 leukemia
KM12 colon = test system: KM12 colon
LOX IMVI melanoma = test system: LOX IMVI melanoma
M14 melanoma = test system: M14 melanoma
MALME-3M melanoma = test system: MALME-3M melanoma
MCF7 breast = test system: MCF7 breast
MDA-MB-231 breast = test system: MDA-MB-231 breast
MDA-MB-435 = test system: MDA-MB-435
MDA-N = test system: MDA-N
MOLT-4 leukemia = test system: MOLT-4 leukemia
NCI-H226 lung = test system: NCI-H226 lung
NCI-H23 lung = test system: NCI-H23 lung
NCI-H460 lung = test system: NCI-H460 lung
NCI-H522 lung = test system: NCI-H522 lung
NCI/ADR-RES ovarian = test system: NCI/ADR-RES ovarian
OVCAR-3 ovarian = test system: OVCAR-3 ovarian
OVCAR-4 ovarian = test system: OVCAR-4 ovarian
OVCAR-5 ovarian = test system: OVCAR-5 ovarian
OVCAR-8 ovarian = test system: OVCAR-8 ovarian
PC-3 prostate = test system: PC-3 prostate
RPMI-8226 leukemia = test system: RPMI-8226 leukemia
RXF 393 renal = test system: RXF 393 renal
SF-268 CNS = test system: SF-268 CNS
SF-295 CNS = test system: SF-295 CNS
SF-539 CNS = test system: SF-539 CNS
SK-MEL-2 melanoma = test system: SK-MEL-2 melanoma
SK-MEL-28 melanoma = test system: SK-MEL-28 melanoma
SK-MEL-5 melanoma = test system: SK-MEL-5 melanoma
SK-OV-3 ovarian = test system: SK-OV-3 ovarian
SN12C renal = test system: SN12C renal
SNB-19 CNS = test system: SNB-19 CNS
SNB-75 CNS = test system: SNB-75 CNS
SR leukemia = test system: SR leukemia
SW-620 colon = test system: SW-620 colon
T-47D breast = test system: T-47D breast
TK-10 renal = test system: TK-10 renal
U251 CNS = test system: U251 CNS
UACC-257 melanoma = test system: UACC-257 melanoma
UACC-62 melanoma = test system: UACC-62 melanoma
UO-31 renal = test system: UO-31 renal
CCRF-CEM leukemia = test system: CCRF-CEM leukemia

Measured: TGI

CC(C)NC1(C(N)=O)CCN(Cc2ccccc2)CC1
> 100 µM: 786-0 renal | A498 renal | A549 NSCLC | ACHN renal | BT-549 breast | CAKI-1 renal | COLO 205 colon | DU-145 prostate | EKVX NSCLC | HCT-116 colon | HCT-15 colon | HL-60(TB) leukemia | HOP-62 NSCLC | HOP-92 NSCLC | HS 578T breast | HT29 colon | IGROV1 ovarian | K-562 leukemia | KM12 colon | LOX IMVI melanoma | M14 melanoma | MALME-3M melanoma | MCF7 breast | MDA-MB-231 breast | MDA-MB-435 | MDA-N | MOLT-4 leukemia | NCI-H226 lung | NCI-H23 lung | NCI-H460 lung | NCI-H522 lung | NCI/ADR-RES ovarian | OVCAR-3 ovarian | OVCAR-4 ovarian | OVCAR-5 ovarian | OVCAR-8 ovarian | PC-3 prostate | RPMI-8226 leukemia | RXF 393 renal | SF-268 CNS | SF-295 CNS | SF-539 CNS | SK-MEL-2 melanoma | SK-MEL-28 melanoma | SK-MEL-5 melanoma | SK-OV-3 ovarian | SN12C renal | SNB-19 CNS | SNB-75 CNS | SR leukemia | SW-620 colon | T-47D breast | TK-10 renal | U251 CNS | UACC-257 melanoma | UACC-62 melanoma | UO-31 renal

NC1(P(=O)(O)O)CCCCC1
> 100 µM: 786-0 renal | A498 renal | A549 NSCLC | ACHN renal | BT-549 breast | CAKI-1 renal | CCRF-CEM leukemia | COLO 205 colon | DU-145 prostate | EKVX NSCLC | HCT-116 colon | HCT-15 colon | HL-60(TB) leukemia | HOP-62 NSCLC | HOP-92 NSCLC | HS 578T breast | HT29 colon | IGROV1 ovarian | K-562 leukemia | KM12 colon | LOX IMVI melanoma | M14 melanoma | MALME-3M melanoma | MCF7 breast | MDA-MB-231 breast | MDA-MB-435 | MDA-N | MOLT-4 leukemia | NCI-H226 lung | NCI-H23 lung | NCI-H460 lung | NCI-H522 lung | NCI/ADR-RES ovarian | OVCAR-3 ovarian | OVCAR-4 ovarian | OVCAR-5 ovarian | OVCAR-8 ovarian | PC-3 prostate | RPMI-8226 leukemia | RXF 393 renal | SF-268 CNS | SF-295 CNS | SF-539 CNS | SK-MEL-2 melanoma | SK-MEL-28 melanoma | SK-MEL-5 melanoma | SK-OV-3 ovarian | SN12C renal | SNB-19 CNS | SNB-75 CNS | SR leukemia | SW-620 colon | T-47D breast | TK-10 renal | U251 CNS | UACC-257 melanoma | UACC-62 melanoma

COc1ccc(N)c(C(=O)CCNC(C)=O)c1
> 100 µM: 786-0 renal | A498 renal | A549 NSCLC | ACHN renal | BT-549 breast | CAKI-1 renal | CCRF-CEM leukemia | COLO 205 colon | DU-145 prostate | EKVX NSCLC | HCT-116 colon | HCT-15 colon | HL-60(TB) leukemia | HOP-92 NSCLC | HS 578T breast | HT29 colon | IGROV1 ovarian | KM12 colon | LOX IMVI melanoma | M14 melanoma | MCF7 breast | MDA-MB-231 breast | MDA-MB-435 | MDA-N | MOLT-4 leukemia | NCI-H226 lung | NCI-H23 lung | NCI-H460 lung | NCI-H522 lung | NCI/ADR-RES ovarian | OVCAR-3 ovarian | OVCAR-4 ovarian | OVCAR-5 ovarian | OVCAR-8 ovarian | PC-3 prostate | RPMI-8226 leukemia | RXF 393 renal | SF-268 CNS | SF-295 CNS | SF-539 CNS | SK-MEL-2 melanoma | SK-MEL-5 melanoma | SK-OV-3 ovarian | SN12C renal | SNB-19 CNS | SNB-75 CNS | SR leukemia | SW-620 colon | T-47D breast | TK-10 renal | U251 CNS | UACC-257 melanoma | UACC-62 melanoma | UO-31 renal
